Data as given in paper PMC5834492, “Antimycobacterial drug discovery using Mycobacteria-infected amoebae identifies anti-infectives and new molecular targets” (Scientific Reports, 2018).
Like-named read-outs stand apart in the source and are kept apart here.

Experiments:
M. marinum luxCDABE = assay type: cell-based, Mycobacterium marinum; details: for M. marinum luxCDABE normalised growth, control = 1.00, mean / M. marinum luxCDABE normalised growth, control=1.00, mean: 10 µM
[1] = test system: M. marinum in A. castellanii; assay type: cell-based, Mycobacterium marinum; details: for A. castellanii / M. marinum normalised growth, control=1.00, mean / Hits A. castellanii/M. marinum assay True/False / anti-infective properties in A. castellanii infection assay: 10 µM
[2] = test system: M. marinum in BV2 microglial cells; assay type: cell-based, Mycobacterium marinum; details: for BV2 / M. marinum normalised growth, control=1.00, mean / anti-infective properties in microglial cell (BV2) infection assay / hit in BV2/M. marinum assay True/False: 10 µM
D. discoideum GFP-ABD = details: for D. discoideum GFP-ABD normalised growth, control=1.00, mean: 10 µM
M. marinum GFP = assay type: cell-based, Mycobacterium marinum; details: for M. marinum GFP normalised growth, control=1.00, mean: 10 µM, antibiotic assay
Mtb H37Rv in THP-1 = test system: Mtb H37Rv in THP-1; set-up: method as in Sorrentino et al, 2015; details: ref Sorrentino et al, 2015, cited from earlier work; for Extracellular MIC90/ Inracellular MIC90: ratio
Mtb H37Rv = test system: Mtb H37Rv; set-up: method as in Sorrentino et al, 2015; details: ref Sorrentino et al, 2015; cited from earlier work
[3] = THP1 / Mtb H37Rv infection assay

| SMILES | M. marinum luxCDABE normalised growth, control=1.00, mean (M. marinum luxCDABE) | M. marinum GFP normalised growth, control=1.00, mean (M. marinum GFP) | A. castellanii / M. marinum normalised growth, control=1.00, mean [1] | IC50 [2] [µM] | BV2 / M. marinum normalised growth, control=1.00, mean [2] | D. discoideum GFP-ABD normalised growth, control=1.00, mean (D. discoideum GFP-ABD) | Intracelullar MIC90 in THP-1 (Mtb H37Rv in THP-1; [3]) [µM] | Extracellular MIC90/ Inracellular MIC90 (Mtb H37Rv in THP-1) | Extracellular MIC90 (Mtb H37Rv) [µM] | other results |
| --- | --- | --- | --- | --- | --- | --- | --- | --- | --- | --- |
| N=C(N)c1ccc(CCN2CCC(c3nc(COCC(F)(F)F)c(-c4ccc(F)cc4)o3)CC2)cc1.O=C(O)C(F)(F)F.O=C(O)C(F)(F)F [GI247341A] | – | – | – | – | – | – | – | – | – | Antibiotic assays: M. marinum luxCDABE (M. marinum luxCDABE): 0.00; Intracellular infection assays: A. castellanii / M. marinum [1]: 1.18; Intracellular infection assays: BV2 / M. marinum [2]: 1.21; Growth inhibition / Cytotoxicity assays: D. discoideum GFP-ABD (D. discoideum GFP-ABD): 0.77; Growth inhibition / Cytotoxicity assays: BV2 cells (BV2 cells): False |
| Cc1cccc(-c2nc(Nc3ccncn3)c3sccc3n2)n1 [GSK153890A] | – | – | – | – | – | – | – | – | – | Antibiotic assays: M. marinum luxCDABE (M. marinum luxCDABE): 0.00; Intracellular infection assays: A. castellanii / M. marinum [1]: 1.21; Intracellular infection assays: BV2 / M. marinum [2]: 1.17; Growth inhibition / Cytotoxicity assays: D. discoideum GFP-ABD (D. discoideum GFP-ABD): 1.05; Growth inhibition / Cytotoxicity assays: BV2 cells (BV2 cells): False |
| CC(C)(C)C(=O)CC1(O)Oc2ccccc2N=C1C=C(O)C(C)(C)C (stereo not drawn) [GSK262906A] | – | – | – | – | – | – | – | – | – | Antibiotic assays: M. marinum luxCDABE (M. marinum luxCDABE): 1.00; Intracellular infection assays: A. castellanii / M. marinum [1]: 1.04; Intracellular infection assays: BV2 / M. marinum [2]: 1.68; Growth inhibition / Cytotoxicity assays: D. discoideum GFP-ABD (D. discoideum GFP-ABD): 0.89; Growth inhibition / Cytotoxicity assays: BV2 cells (BV2 cells): False |
| c1ccc(-c2nnc(Sc3ccnc(N4CCN(c5ccncc5)CC4)n3)n2CCCN2CCOCC2)nc1 [GSK547543A] | – | – | – | – | – | – | – | – | – | Antibiotic assays: M. marinum luxCDABE (M. marinum luxCDABE): 0.00; Intracellular infection assays: A. castellanii / M. marinum [1]: 0.99; Intracellular infection assays: BV2 / M. marinum [2]: 1.22; Growth inhibition / Cytotoxicity assays: D. discoideum GFP-ABD (D. discoideum GFP-ABD): 0.87; Growth inhibition / Cytotoxicity assays: BV2 cells (BV2 cells): False |
| Cc1ccccc1CN1CCC(O)(c2ccc(Cl)c(C(F)(F)F)c2)CC1 [GSK1985270A] | 0.00 | 0.09 | -0.06 | 4.88 | 0.45 | 0.99 | 0.21 | 20 | 4.2 | M. marinum luxCDABE normalised growth, control = 1.00, mean (M. marinum luxCDABE): 0,00; Hits A. castellanii/M. marinum assay True/False [1]: TRUE; anti-infective properties in A. castellanii infection assay [1]: strong anti-infective properties; anti-infective properties in microglial cell (BV2) infection assay [2]: strong anti-infective properties; hit in BV2/M. marinum assay True/False [2]: TRUE; Intracelullar MIC90 in THP-1 (Mtb H37Rv in THP-1; Mtb H37Rv-infected THP1 cells): 0.21 µM |
| COc1ccc(-c2nc(-c3cccc(NC(=O)Cc4ccc(F)cc4)c3)no2)cc1OC [GSK2043267A] | 0.00 | 0.97 | 0.86 | 6.69 | 0.77 | 1.18 | 0.21 | 17.62 | 3.7 | antibiotic activity in M. marinum growth assay (M. marinum GFP; broth): strong antibiotic activity |
| Cc1n[nH]c(C)c1S(=O)(=O)NCc1nc(NCCCc2ccccc2)c2ccccc2n1 [GSK2059310A] | 0.00 | 0.46 | 1.06 | 4.65 | 0.57 | 0.84 | 5.55 | 0.32 | 1.8 | – |
| CCCCS(=O)(=O)Nc1ccc2cnn(C)c2c1 [GSK3011724A] | 0.14 | 0.08 | -0.32 | 4.44 | 0.40 | 0.99 | 0.21 | 6.19 | 1.3 | Hits A. castellanii/M. marinum assay True/False [1]: TRUE; anti-infective properties in A. castellanii infection assay [1]: strong anti-infective properties; anti-infective properties in microglial cell (BV2) infection assay [2]: strong anti-infective properties; hit in BV2/M. marinum assay True/False [2]: TRUE; Intracelullar MIC90 in THP-1 (Mtb H37Rv in THP-1; Mtb H37Rv-infected THP1 cells): 0.21 µM |
| Nc1cc(OCc2ccccc2)ccc1Nc1ccccc1 [GV187303X] | 0.90 | 0.71 | 1.05 | 5.44 | 0.55 | 0.89 | 50 | 0.19 | 9.4 | – |
| Nc1nc(N)c2c(Sc3ccc4ccccc4c3)cccc2n1 [GW369335X] | 0.20 | 0.14 | 0.37 | 4.87 | 0.71 | 0.97 | 5.55 | 1.57 | 8.7 | Hits A. castellanii/M. marinum assay True/False [1]: TRUE; hit in BV2/M. marinum assay True/False [2]: FALSE; Intracelullar MIC90 in THP-1 (Mtb H37Rv in THP-1; Mtb H37Rv-infected THP1 cells): 5.55 µM |
| O=C(NC12CC3CC(CC(C3)C1)C2)c1cc2cc(Cl)ccc2[nH]1 [GW623128X] | 0.00 | 0.86 | 0.51 | 4.92 | 0.66 | 1.06 | 0.07 | 14.28 | 1 | – |
| Cc1cc(OCC(=O)Nc2ccccc2)c2cc(Br)ccc2n1 [GW857165X] | 0.00 | 0.81 | 0.83 | 3.52 | 0.72 | 0.90 | 16.65 | 0.2 | 3.3 | – |
| O=C(C=Cc1cccs1)N1CCN(Cc2ccc3c(c2)OCO3)CC1 [GW861072X] | 0.00 | 0.05 | 0.54 | 7.99 | 0.48 | 0.68 | 0.61 | 0.49 | 0.3 | M. marinum luxCDABE normalised growth, control = 1.00, mean (M. marinum luxCDABE): 0,00; Hits A. castellanii/M. marinum assay True/False [1]: FALSE; hit in BV2/M. marinum assay True/False [2]: TRUE; Intracelullar MIC90 in THP-1 (Mtb H37Rv in THP-1; Mtb H37Rv-infected THP1 cells): 0.61 µM |
| Nc1ccccc1Nc1ccc2c(c1)OCO2 [SB-435634] | 1.00 | 1.08 | 1.04 | 11.4 | 0.63 | 1.14 | 5.55 | 0.32 | 1.8 | – |
| CCc1ccc(S(=O)(=O)Nc2cc(CN3CCN(CCC(C)C)CC3)ccc2C)cc1.O=C(O)C(F)(F)F.O=C(O)C(F)(F)F [SB-811137-V] | 0.18 | 0.94 | 1.15 | 5.94 | 0.85 | 0.88 | 5.55 | 0.85 | 4.7 | – |
